Measurements reported in PubChem BioAssay (NCI).
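Five compound concentrations were applied to cells in 96-well plates for 48 hours; endpoints were derived by simple linear interpolation of the resulting dose-response curve. GI50 is the concentration that inhibits growth by half. TGI marks complete inhibition of growth.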

Experiments:
Test in all cases: DTP human tumour cell line panel, 48 h
[1] = test system: 786-0 renal
[2] = test system: A498 renal
[3] = test system: A549 NSCLC
[4] = test system: ACHN renal
[5] = test system: BT-549 breast
[6] = test system: CAKI-1 renal
[7] = test system: CCRF-CEM leukemia
[8] = test system: COLO 205 colon
[9] = test system: DU-145 prostate
[10] = test system: EKVX NSCLC
[11] = test system: HCC-2998 colon
[12] = test system: HCT-116 colon
[13] = test system: HCT-15 colon
[14] = test system: HOP-62 NSCLC
[15] = test system: HOP-92 NSCLC
[16] = test system: HS 578T breast
[17] = test system: HT29 colon
[18] = test system: IGROV1 ovarian
[19] = test system: K-562 leukemia
[20] = test system: KM12 colon
[21] = test system: LOX IMVI melanoma
[22] = test system: M14 melanoma
[23] = test system: MALME-3M melanoma
[24] = test system: MCF7 breast
[25] = test system: MDA-MB-231 breast
[26] = test system: MDA-MB-435
[27] = test system: MOLT-4 leukemia
[28] = test system: NCI-H226 lung
[29] = test system: NCI-H460 lung
[30] = test system: NCI-H522 lung
[31] = test system: NCI/ADR-RES ovarian
[32] = test system: OVCAR-3 ovarian
[33] = test system: OVCAR-4 ovarian
[34] = test system: OVCAR-5 ovarian
[35] = test system: OVCAR-8 ovarian
[36] = test system: PC-3 prostate
[37] = test system: RPMI-8226 leukemia
[38] = test system: RXF 393 renal
[39] = test system: SF-268 CNS
[40] = test system: SF-295 CNS
[41] = test system: SF-539 CNS
[42] = test system: SK-MEL-2 melanoma
[43] = test system: SK-MEL-28 melanoma
[44] = test system: SK-MEL-5 melanoma
[45] = test system: SK-OV-3 ovarian
[46] = test system: SN12C renal
[47] = test system: SNB-19 CNS
[48] = test system: SR leukemia
[49] = test system: SW-620 colon
[50] = test system: T-47D breast
[51] = test system: TK-10 renal
[52] = test system: U251 CNS
[53] = test system: UACC-257 melanoma
[54] = test system: UACC-62 melanoma
[55] = test system: UO-31 renal
[56] = test system: HL-60(TB) leukemia
[57] = test system: NCI-H23 lung
[58] = test system: SNB-75 CNS

Cc1c(-c2ccc(O)cc2)oc(=O)c2ccc(O)cc12
GI50 [1]: 50.7 µM | TGI [1]: > 100 µM | GI50 [2]: 42.8 µM | TGI [2]: 98.1 µM | GI50 [3]: 47.6 µM | TGI [3]: > 100 µM | GI50 [4]: > 100 µM | TGI [4]: > 100 µM | GI50 [5]: 35.6 µM | TGI [5]: > 100 µM | GI50 [6]: 22.4 µM | TGI [6]: > 100 µM | GI50 [7]: 32.6 µM | TGI [7]: > 100 µM | GI50 [8]: > 100 µM | TGI [8]: > 100 µM | GI50 [9]: 75.8 µM | TGI [9]: > 100 µM | GI50 [10]: 54.6 µM | TGI [10]: > 100 µM | GI50 [11]: 36.9 µM | TGI [11]: > 100 µM | GI50 [12]: 38 µM | TGI [12]: > 100 µM | GI50 [13]: 89.8 µM | TGI [13]: > 100 µM | GI50 [14]: 41 µM | TGI [14]: > 100 µM | GI50 [15]: > 100 µM | TGI [15]: > 100 µM | GI50 [16]: 43.5 µM | TGI [16]: > 100 µM | GI50 [17]: 73.3 µM | TGI [17]: > 100 µM | GI50 [18]: 35.7 µM | TGI [18]: > 100 µM | GI50 [19]: 38.5 µM | TGI [19]: > 100 µM | GI50 [20]: 60.9 µM | TGI [20]: > 100 µM | GI50 [21]: > 100 µM | TGI [21]: > 100 µM | GI50 [22]: 40.3 µM | TGI [22]: > 100 µM | GI50 [23]: 32.7 µM | TGI [23]: > 100 µM | GI50 [24]: 66.3 µM | TGI [24]: > 100 µM | GI50 [25]: > 100 µM | TGI [25]: > 100 µM | GI50 [26]: 15.4 µM | TGI [26]: 85.2 µM | GI50 [27]: 73.7 µM | TGI [27]: > 100 µM | GI50 [28]: > 100 µM | TGI [28]: > 100 µM | GI50 [29]: 45.3 µM | TGI [29]: > 100 µM | GI50 [30]: 87.6 µM | TGI [30]: > 100 µM | GI50 [31]: 49.7 µM | TGI [31]: > 100 µM | GI50 [32]: 51.5 µM | TGI [32]: > 100 µM | GI50 [33]: > 100 µM | TGI [33]: > 100 µM | GI50 [34]: > 100 µM | TGI [34]: > 100 µM | GI50 [35]: 83.8 µM | TGI [35]: > 100 µM | GI50 [36]: 56.4 µM | TGI [36]: > 100 µM | GI50 [37]: 31 µM | TGI [37]: > 100 µM | GI50 [38]: > 100 µM | TGI [38]: > 100 µM | GI50 [39]: 55.4 µM | TGI [39]: > 100 µM | GI50 [40]: 32.8 µM | TGI [40]: > 100 µM | GI50 [41]: 36.7 µM | TGI [41]: > 100 µM | GI50 [42]: > 100 µM | TGI [42]: > 100 µM | GI50 [43]: 60 µM | TGI [43]: > 100 µM | GI50 [44]: 33.3 µM | TGI [44]: > 100 µM | GI50 [45]: > 100 µM | TGI [45]: > 100 µM | GI50 [46]: 66.6 µM | TGI [46]: > 100 µM | GI50 [47]: > 100 µM | TGI [47]: > 100 µM | GI50 [48]: 41.6 µM | TGI [48]: > 100 µM | GI50 [49]: 55.4 µM | TGI [49]: > 100 µM | GI50 [50]: > 100 µM | TGI [50]: > 100 µM | GI50 [51]: 27.4 µM | TGI [51]: > 100 µM | GI50 [52]: 63.8 µM | TGI [52]: > 100 µM | GI50 [53]: 63.2 µM | TGI [53]: > 100 µM | GI50 [54]: 35.2 µM | TGI [54]: > 100 µM | GI50 [55]: 69.9 µM | TGI [55]: > 100 µM

CN(C)C=NC1CCC(C(C)(C)C)CC1 (centres undefined)
TGI [1]: 33.3 µM | TGI [2]: 49.6 µM | TGI [3]: 38.9 µM | TGI [4]: 43.8 µM | TGI [5]: 34 µM | TGI [6]: 33.1 µM | TGI [8]: 33.2 µM | TGI [9]: 61.3 µM | TGI [10]: 59.8 µM | TGI [11]: 27.9 µM | TGI [12]: 31.9 µM | TGI [13]: 32.8 µM | TGI [56]: 33.2 µM | TGI [14]: 32.3 µM | TGI [15]: 34.6 µM | TGI [16]: 42 µM | TGI [17]: 21.6 µM | TGI [18]: 37.9 µM | TGI [19]: 45.1 µM | TGI [21]: 29.7 µM | TGI [22]: 33.6 µM | TGI [23]: 34.9 µM | TGI [24]: > 100 µM | TGI [25]: 26.7 µM | TGI [26]: 33.3 µM | TGI [27]: 32.2 µM | TGI [28]: 41.3 µM | TGI [57]: 34.3 µM | TGI [29]: 35.1 µM | TGI [30]: 31.8 µM | TGI [31]: 32.8 µM | TGI [32]: 28.8 µM | TGI [33]: 51.1 µM | TGI [34]: 37.2 µM | TGI [35]: 28.9 µM | TGI [36]: 30.3 µM | TGI [38]: 45.6 µM | TGI [39]: 96 µM | TGI [40]: 31.2 µM | TGI [41]: 31.8 µM | TGI [42]: 35.4 µM | TGI [43]: 29.4 µM | TGI [44]: 31 µM | TGI [45]: 44.8 µM | TGI [46]: 34.6 µM | TGI [47]: 39.9 µM | TGI [58]: 34.9 µM | TGI [49]: 34.4 µM | TGI [50]: 37.5 µM | TGI [51]: 38.6 µM | TGI [52]: 31.2 µM | TGI [53]: 29.1 µM | TGI [54]: 33.8 µM | TGI [55]: 30.8 µM
